The values below come from US3988340A, “6-Alkoxymethyl-1,2,3,5-tetrahydroimidazo[2,1-b]quinazolin-2-ones and 7-alkoxymethyl-6-[H]-1,2,3,4-tetrahydropyrimido[2,1-b]quinazolin-2-ones” (Bristol-Myers Company, priority 1975, dated 1976).

Converted amounts (≈) assume the structure as drawn. Like-named read-outs stand apart in the source and are kept apart here.

Data set [1] in a line: Crystal formation in the liver of dogs at very high doses. Type of data set: in vivo, dog. As to conditions: compound or a metabolite.
Data set [2] in a line: Hypotensive activity compared with BL-3459. The conditions noted are these: associated with antiaggregative activity; versus BL-3459. Format: in vivo.
Data set [3] deals with blood platelet aggregation. Briefly: Blood platelet antiaggregative potency compared with BL-3459. The conditions noted are these: versus BL-3459.
Data set [4] in a line: Crystal deposits in tissues of animal species evaluated. Format: in vivo. As to conditions: any tissue of any animal species evaluated up to the present time.
Data set [5] relates to Dog Platelet Rich Plasma. Briefly: In vitro inhibition of ADP induced platelet aggregation in the aggregometer, dog platelet rich plasma. Type of data set: cell-based. The conditions noted are these: Canis lupus familiaris, read-out: EC50 & 95% Confidence Limits.
Data set [6] deals with biolaser induced thrombosis. As to the kind of experiment: Biolaser induced thrombosis in the rabbit ear chamber. Format: in vivo. The source says: (§1) Methodology for these three in vivo techniques has been previously reported (4, 5).
For data set [7], the system named is electrically induced carotid artery thrombosis. Briefly: Electrically induced carotid artery thrombosis in the dog. The conditions noted are these: Canis lupus familiaris, po. Type of data set: in vivo.
Source text: as §1

Data set [8] concerns Dog Platelet Rich Plasma. Briefly: Ex vivo ADP induced platelet aggregation in dog PRP after oral drug administration. The conditions noted are these: Canis lupus familiaris, PRP obtained before and 1 hr. after oral drug administration, read-out: ED50, ex vivo inhibition of ADP induced aggregation. As to the method: BL-4784A was also tested ex vivo in dogs where ADP was used to induce aggregation in PRP samples obtained before and 1 hr. after oral drug administration.
Before dosing the animals, blood samples are taken. The blood is centrifuged to obtain the blood platelet-rich plasma. Aggregation of this plasma is induced with ADP or collagen. This is the control.
The animals are then dosed with the compounds to be tested (orally or parenterally). Depending upon the route of administration, one to two hours are allowed to elapse after dosing. Blood is drawn and the same procedure as for the control in untreated animals.
The dose required to produce 50% inhibition of the aggregation is determined by dose response data obtained in this manner.

Data set [9] in a line: Mean aortic blood pressure in rats after oral administration. Format: in vivo. As to conditions: 50 mg/kg oral; for Mean Aortic Blood Pressure % Change / Mean Aortic Blood Pressure: N=9, mean ± 1 S.E. As to the method: The blood pressure of unanesthetized rats and dogs was measured directly by means of a transducer attached to an intra-arterial cannula and in anesthetized dogs by a mercury manometer attached to a carotid cannula.
The compounds of the instant invention were tested as the hydrochloride salts by the above method in normotensive rats in doses of 50 mg./kg. orally.
Compound 12a (BL-4784a) was tested for its hypotensive activity in rats as follows:
Rats were dosed orally with the test drug (50 mg/kg) or saline and blood pressure measurements were made at 30, 90, 150 and 300 mins. after drug administration.
Saline administration in a volume equivalent to drug administration had only a minimal effect.

In data set [10] the test system is Rabbit Platelet Rich Plasma. Briefly: In vitro inhibition of induced platelet aggregation in the aggregometer, rabbit platelet rich plasma. Format: cell-based. As to conditions: Oryctolagus cuniculus, read-out: EC50 & 95% Confidence Limits. As to the method: The aggregometer method of Born (1), as modified by Mustard et al. (2) was used to assess the in vitro activity of the various compounds as to inhibition of adenosine diphosphate (ADP) and collagen induced platelet aggregation. Platelet rich plasma was separated by centrifugation from citrated (3.8 percent) rabbit blood. […] (3) was used to induce aggregation. The various compounds tested were dissolved in dimethylsulfoxide (DMSO) so that 5 mcl. added to the platelet rich plasma would yield the desired test concentration. Vehicle control trials were done and compared with aggregation induced in platelet rich plasma containing various concentrations of the test compounds. Dose response curves were obtained and Effective Concentration (EC50) values calculated.
Compound 12a (BL-4784A) has been evaluated in a series of in vitro, ex vivo and in vivo animal models of platelet aggregation and thrombosis.

A short description of data set [11]: In vivo solubility of compound or metabolite. As to conditions: compound or its metabolite, versus BL-3459. Format: physicochemical.

As to `Cc1cccc2c1CN1CC(=O)NC1=N2` [BL-3459], the “Crystal formation in liver” value in data set [1] was “formed crystals in the liver of dogs at very high doses”.
With `COCc1cccc2c1CN1CC(=O)NC1=N2` [Compound 12a, 6-(α-methoxymethyl)-1,2,3,5-tetrahydroimidazo[2,1-b]quinazolin-2-one], the “Degree of hypotensive activity” value in [2] is “lower degree of hypotensive activity”. The “Potency as blood platelet antiaggregate” value in data set [3] is given as “more potent than BL-3459”. Further, in data set [4], the “Crystal deposits in tissue” value is “no crystal deposits have been observed in any tissue of any animal species”. Moreover, the EC50 stood at 0.19 µg/mL (≈ 0.822 µM) with Dog Platelet Rich Plasma [5]; 0.2 µg/mL (≈ 0.865 µM) in [10] (ADP induced (2.93 × 10^-5 M)); 0.13 µg/mL in data set [10] (Antigen-Antibody complex (egg albumin, 2 μg/ml), PRP from sensitized rabbits); 0.27 µg/mL (≈ 1.17 µM) in data set [10] (Arachidonic acid induced (50 μg/ml)); 0.09 µg/mL (≈ 0.389 µM) in data set [10] (Collagen induced); 0.63 µg/mL (≈ 2.72 µM) in [10] (Thrombin induced (1 unit per ml)). Besides, the ED50 stood at 5.3 mg/kg in [6] (Oryctolagus cuniculus, rabbit ear chamber, po); 10.5 mg/kg in data set [7]; 1.79 mg/kg in the data set on Dog Platelet Rich Plasma [8]. Further, the “Activity in in vivo animal models of thrombosis” value in data set [6] (result in words for three in vivo animal models) was “significant activity in three in vivo animal models”. Further, in data set [9] (result in words), the “Aortic blood pressure lowering” value is “significant lowering of aortic blood pressure”. The “Mean Aortic Blood Pressure % Change” value in data set [9] (30 min) is -33 ± 4%; in data set [9] (90 min) it was -27 ± 4%; in data set [9] (150 min) it was -23 ± 2%; in data set [9] (300 min), -20 ± 4%. The “Mean Aortic Blood Pressure” value in data set [9] (30 min, *P = <.05) is 73 ± 5 mm Hg; in [9] (90 min, *P = <.05) it was 79 ± 3 mm Hg; in data set [9] (150 min, *P = <.05), 84 ± 3 mm Hg; in data set [9] (300 min, *P = <.05) it was 87 ± 3 mm Hg; in [9] (time 0 min (before drug)), 111 ± 3 mm Hg. Further, the Solubility in vivo entry in data set [11] is reported as “more soluble in vivo”.

A word on the EC50: it is the concentration at which the effect is half-maximal. The ED50 is the dose at which the effect has come halfway, by size or by number of responders.
